Results from patent US20250302720A1, “PEPTIDE-BASED HAIR TREATMENT” (Sederma, priority 2020, published 2025).
Residues, ends and D or L forms follow the SMILES beside them.

Columns and labels:
[1] = system: Normal human melanocytes (NHM); assay: Reduction of the ROS quantity in NHM (DCFH-DA probe, with or without H2O2 stress); assay type: cell-based; conditions: for ROS quantity, variation: 24 h, vs control, n = 3
Experimental: Normal human melanocytes (NHM) almost at confluence are brought into contact with the peptide according to the invention for 24 hours. At the end of this contact, the cells are contacted with a DCFH-DA probe which is inserted into these cells. After rinsing to remove the excess probe, the cells are placed in contact with H2O2 to mimic oxidative stress. A case without oxidative stress is also realized. The reaction of H2O2 with the probe in the cell is measured by fluorescence. An estimate of the quantity of cells is carried out in parallel to harmonize the results.

CREB = assay: Expression of melanogenesis genes in NHM (qRTPCR): CREB; assay type: cell-based, human; conditions: 72 h, vs control, n = 4
Experimental: (§1) NHM are cultivated and brought into contact with the peptide according to the invention or its solvent. At the end of 72 h of contact, the melanocytes are crushed, and the mRNAs are recovered, converted into cDNA which are analyzed by qRTPCR, to estimate the changes in the expression level of the mRNAs. The expression of the following genes has been studied: MITF, TYRP1 and CREB.

tyrosinase = assay: Tyrosinase (dopa-oxidase) activity extracted from NHM after 10 days; assay type: cell-based, human; conditions: vs control, n = 4
Experimental: The same culture and contact protocol as above are used with the melanocytes of two different donors with regard to their production of melanin (moderately and poorly pigmented).
After contact, the tyrosinase was extracted from the cells and its dopa-oxidase activity is assessed using the substrate L-DOPA at 37° C. The absorbance due to the production of Dopaquinone is measured at 490 nm and converted to activity units using a preset range. A protein assay using the Bicinchoninic Acid (BCA) method is used to estimate cell quantity and thus to homogenize the obtained data.

BCL-2 gene = BCL-2 gene expression in NHM (qRTPCR); assay type: cell-based, human; conditions: 72 hours, vs control
Experimental: NHM are cultivated and brought into contact with the peptide according to the invention or its solvent. At the end of 72 hours of contact, the melanocytes are crushed, and the mRNA are recovered, converted into cDNA which are analyzed by a qRTPCR to evaluate the changes in the level of expression of the mRNA of BCL-2.

[2] = system: grey/white hair of volunteers; assay: In-vivo grey/white hair density in volunteers (standardized photos, Image J image analysis); design: species or system human
Experimental: The in-vivo tests were carried out by applying the hair lotion described above in point 1) in the Galenic part. This lotion comprises 90 ppm of the peptide of the invention. Four independent studies were conducted with a total of 84 volunteers (average age of the entire panel of selected volunteers was 42 years). All four studies were conducted over a wide range of geographical locations, times, seasons, application sites, phototypes and methods. The details are specified in the below table.
All the studies used a complex photographic system, with the camera mounted on a bench to ensure perfect repositioning of the volunteer's head at all study times. For each volunteer, profile photos, and in some studies also of the back or the top of the head, were taken in cross-polarized mode to eliminate any parasitic shine so as not to interfere with the image analysis photo treatment. These photos are used to both get an overview of the grey hair intensity and, by their quality, to work on a smaller isolated area.
The evaluation of the area occupied by grey/white hair was made in the photos with the NIH-USA™ Image J software by targeting the areas of interest.
Commonly, a short hair size (2 cm for example) was requested, except for test site 2, and that this size be the same for a volunteer at different measurement times to facilitate before-after comparisons.
Also, in common, each original photo, in color, was converted to an image with grey levels, the same level filter (thresholding operation) was applied before and after to the photos of the same volunteer. Non-black hair where thus selected. At the end, a binarization operation (black/white) was carried out to separate the non-black hairs (grey and white) from the blacks and to quantify the former.

MITF = assay: Expression of melanogenesis genes in NHM (qRTPCR): MITF; assay type: cell-based, human; conditions: 72 h, vs control, n = 4
Experimental: as §1

[3] = system: melanocyte dendrites (NHM); assay: Length of melanocyte dendrites (antibody labelling, image analysis); assay type: cell-based, human; conditions: 48 hours, vs control, n = 3
Experimental: The cells are brought into contact with the peptide according to the invention for 48 hours. Then the melanocyte layers, once rinsed, are labeled using an antibody. The area occupied by the dendrites are obtain by image analysis on the photos taken, a parameter converted into the relative dendrite length/100 cells. At the same time, the cell nuclei are counterstained using Hoescht 33258 fluorescent dye to estimate the cell number and to harmonize the data.

[4] = 7 volunteers, behind the head, T 3 m
[5] = 7 volunteers, behind the head, T 6 m (3 months after the last application)
[6] = 10 volunteers, top of the head, T 4 m
[7] = 10 volunteers, top of the head, T 8 m (4 months after the last application)
[8] = lotion 90 ppm, 5 ml/d, 17 volunteers, one side (profile), T 3 m
[9] = lotion 90 ppm, 5 ml/d, 21 volunteers, behind the head, T 3 m
[10] = lotion 90 ppm, 5 ml/d, 21 volunteers, one side (profile)/temple, T 3 m
[11] = lotion 90 ppm, 5 ml/d, 25 volunteers, one side (profile), T 3 m
[12] = lotion 90 ppm, 5 ml/d, site 2, 18 volunteers, top of the head, T 4 m
[13] = lotion 90 ppm, 5 ml/d, site 2, 19 volunteers, top of the head, T3 m
[14] = lotion 90 ppm, 17 volunteers, one side (profile), T 3 m
[15] = lotion 90 ppm, 21 volunteers, behind the head, T 3 m
[16] = lotion 90 ppm, 21 volunteers, one side (profile)/temple, T 3 m
[17] = lotion 90 ppm, 25 volunteers, one side (profile), T 3 m

Tyrosinase activity, Variation (%) (tyrosinase; 5 ppm, poorly pigmented (§§) NHM): +15%; p < 0.05 | Tyrosinase activity, Variation (%) (tyrosinase; 7 ppm, moderately pigmented (§) NHM): +14%; p < 0.01 | Tyrosinase activity, Variation (%) (tyrosinase; 10 ppm, moderately pigmented (§) NHM): +27%; p < 0.01 | Tyrosinase activity, Variation (%) (tyrosinase; 10 ppm, poorly pigmented (§§) NHM): +74%; p < 0.01
SMILES: CCCCCCCCCCCCCCCC(=O)N1CCC[C@H]1C(=O)N1CCC[C@H]1C(=O)O [Pal-PP-OH, palmitoyl-prolyl-proline] (HELM PEPTIDE1{[CCCCCCCCCCCCCCCC(=O)[*:2]].P.P}$$$$V2.0)
ROS quantity, variation ([1]; 10 ppm, after the H2O2 stress): −25%; p < 0.01 | ROS quantity, variation ([1]; 10 ppm, without H2O2 stress (basal state)): −23%; p < 0.01 | ROS quantity, variation ([1]; 12.5 ppm, after the H2O2 stress): −33%; p < 0.01 | ROS quantity, variation ([1]; 12.5 ppm, without H2O2 stress (basal state)): −24%; p < 0.01 | reduction of the production of intracellular peroxide ([1]; during oxidative stress, vs. control): 33% | variation in the expression of CREB gene (CREB; 10 ppm): +46%; p < 0.01 | variation in the expression of CREB gene (CREB; 12.5 ppm): +56%; p < 0.01 | expression of the BCL-2 gene, Variation (%) (BCL-2 gene; 10 ppm, n = 4): +62%; p < 0.01 | expression of the BCL-2 gene, Variation (%) (BCL-2 gene; 12.5 ppm, n = 4): +99%; p < 0.01 | expression of the BCL-2 gene, Variation (%) (BCL-2 gene; 12.5 ppm, n = 4, listed as peptide of the invention): +99% | Grey hair density, Maximum [2, 4]: −70% | Grey hair density, Repondents [2, 4]: 100% | Grey hair density, Moyenne (%) ([2]; 7 volunteers, behind the head, T 3 m (end of 3 months of application)): 3.14% | Grey hair density, Maximum [2, 5]: −60% | Grey hair density, Moyenne (%) [2, 5]: 3.00% | Grey hair density, Repondents [2, 5]: 100% | Grey hair density, Maximum [2, 6]: −22% | Grey hair density, Repondents [2, 6]: 100% | Grey hair density, Moyenne (%) ([2]; 10 volunteers, top of the head, T 4 m (end of 4 months of application)): 39.36% | Grey hair density, Variation vs. T0 ([2]; 10 volunteers, top of the head, T 4 m (end of 4 months of application), listed as peptide according to the invention): −15.04% | Grey hair density, Maximum [2, 7]: −45% | Grey hair density, Moyenne (%) [2, 7]: 36.04% | Grey hair density, Repondents [2, 7]: 80% | Grey hair density, Variation vs. T0 ([2]; 10 volunteers, top of the head, T 8 m (4 months after the last application), listed as peptide according to the invention): −22.20% | decrease of the grey hair density on the temples, on average (3 tests) ([2]; after 3 months of application): 32.4% | decrease of the grey hair density ([2]; after 3 months of application, back of the head, 21 volunteers): 31.9% | decrease of the grey hair density ([2]; after 3 months of application, temples, 21 volunteers): 37.5% | Grey hair density, Mean (%) [2, 8]: 7.50% | Grey hair density, Variation vs. T0 [2, 8]: −21.1% | Grey hair density, Mean (%) [2, 9]: 3.28% | Grey hair density, Variation vs. T0 [2, 9]: −31.9% | Grey hair density, Mean (%) [2, 10]: 4.78% | Grey hair density, Variation vs. T0 [2, 10]: −37.5% | Grey hair density, Mean (%) [2, 11]: 1.90% | Grey hair density, Variation vs. T0 [2, 11]: −38.7% | Grey hair density, Mean (%) [2, 12]: 39.78% | Grey hair density, Variation vs. T0 [2, 12]: −10.90% | Grey hair density, Mean (%) [2, 13]: 40.22% | Grey hair density, Variation vs. T0 [2, 13]: −8.80% | Grey hair density, Maximum variation [2, 14]: −67% | Grey hair density, respondents [2, 14]: 76% | Grey hair density, Maximum variation [2, 15]: −70% | Grey hair density, respondents [2, 15]: 95% | Grey hair density, Maximum variation [2, 16]: −70% | Grey hair density, respondents [2, 16]: 100% | Grey hair density, Maximum variation [2, 17]: −86% | Grey hair density, respondents [2, 17]: 68% | Grey hair density, respondents, mean of 3 studies ([2]; lotion 90 ppm, column Mean T 3 m vs. T0, one side (profile)): 81% | Grey hair density, Variation vs. T0, Mean T 3 m vs. T0 of 3 studies ([2]; lotion 90 ppm, mean of the 3 studies (21, 25, 17 volunteers), one side (profile), T 3 m): −32.43% | Grey hair density, Maximum ([2]; lotion 90 ppm, site 2, 18 volunteers, top of the head, T 4 m): −23% | Grey hair density, respondents ([2]; lotion 90 ppm, site 2, 18 volunteers, top of the head, T 4 m, listed as peptide according to the invention): 84% | Grey hair density, Maximum ([2]; lotion 90 ppm, site 2, 19 volunteers, top of the head, T3 m): −26% | Grey hair density, respondents ([2]; lotion 90 ppm, site 2, 19 volunteers, top of the head, T3 m, listed as peptide according to the invention): 79% | decrease in grey/white hair ([2]; top of the head, T 3 months): 8.8% | decrease in grey/white hair ([2]; top of the head, after 4 months of use): 10.9% | variation in the expression of MITF gene (MITF; 10 ppm): +39%; p < 0.01 | variation in the expression of MITF gene (MITF; 12.5 ppm): +42%; p < 0.01 | Lenght of the dendrites, Variation (%) ([3]; 5 ppm): +20%; p < 0.01 | Lenght of the dendrites, Variation (%) ([3]; 10 ppm): +33%; p < 0.01 | Lenght of the dendrites, Variation (%) ([3]; 15 ppm): +57%; p < 0.01
